Experimental data reported in article PMC8318231, “Rate-of-Kill (RoK) assays to triage large compound sets for Chagas disease drug discovery: Application to GSK Chagas Box” (PLoS Neglected Tropical Diseases, 2021).

How the values were obtained:
[1] = system: T. cruzi Tulahuen trypomastigotes; assay: T. cruzi trypomastigote assay (Cell Titer-Glo viability, ATP luminescence); assay type: cell-based, Trypanosoma cruzi; conditions: for Trypomastigotes pIC50 48 hours: 48 hours incubation; for Trypomastigotes pIC50 48 hours / Trypomastigotes pIC50 72 hours: pIC50 = -log10 IC50 in molar units; for Trypomastigotes pIC50 72 hours: 72 hours incubation; for 72 pIC50 (trypomastigotes, raw data of Fig 1D): 72 hours, plotted values, censored values given without sign; for 48 pIC50 / 72 pIC50: trypomastigote assay; for 48 pIC50: 48 h; for 72 pIC50: 72 h
Outline: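 Tulahuen trypomastigotes from infected LLC-MK2 culture supernatants (days 5–8) plated at 5 × 10^4 per well in DMEM/2% FBS with compound at 5 μM single-shot final or in dose response. Viability by CellTiter-Glo ATP luminescence after 10 min at room temperature, normalised to no-cell (100%) and DMSO (0%) controls.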

TcCYP51 = conditions: formerly reported; cited from earlier work
[2] = system: T. cruzi intracellular amastigotes in H9c2 cells; assay: Rate-of-Kill (RoK) high-content imaging assay, amastigotes per cell (AM/CELL) and curve descriptors; assay type: cell-based, Trypanosoma cruzi; design: key to ME_24h / ME_48h / ME_72h: % reduction in parasite burden (cidal response); t50pct_MCC50 / t50pct_Cmax: unit not given here; conditions: for ME_24h: 24h; for ME_48h: 48h; for ME_72h: 72h; for AM/CELL NORM: sheet figure 4 A; for t50%_Cmax / tlag_Cmax / t50pct_Cmax: at Cmax; for ME_24h (%): maximum effect at 24 h; for ME_24h (%) / ME_48h (%) / ME_72h (%): RoK assay; for ME_48h (%): maximum effect at 48 h; for ME_72h (%): maximum effect at 72 h; for ME 24h (maximum effect at 24 hours, intracellular amastigotes): maximum percentage of parasite burden reduction reached by any concentration
Protocol: For this high-content intracellular imaging assay, H9c2 cells were seeded in 225 cm^2 T- FLASK in DMEM with 10% FBS for 4 h to allow attachment. T. cruzi trypomastigotes, collected at days 5 to 8 after infection from LLC-MK2 parasite infected cultures, were allowed to swim out for 4 h at 37°C from a centrifuged pellet (1,600 x g / 10 min). Trypomastigotes were then collected and counted in a CASY Cell Counter using the 60 μm capillary. Trypomastigotes, in supplemented DMEM, were added to H9c2 cultures in a multiplicity of infection (MOI) of 8 and incubated for 18 h. Cells were washed once with PBS before incubation of the infected H9c2 monolayer with trypsin (Life-Technologies) to detach cells from the flask. Cells were counted in a CASY Cell Counter, using the 150 μm capillary, and their density set at 5 x 10^4 cells/mL in supplemented DMEM. Infected H9c2 were dispensed into 384-well plates at 50 μL per well using a Multidrop Combi dispenser. Control wells used to determine a 100% parasitic growth (full 6th column of each plate) were left untreated, whereas not infected cells were added in the control wells used as 0% parasite growth (or 100% parasite growth inhibition; full 18th column of each plate). The four plates corresponding to each RoK assay were predispensed for the same mother plate. […] Cultures were then fixed and stained with 50 μL per well of a PBS solution containing 4% formaldehyde and 2 μM DRAQ5 DNA dye (BioStatus, UK). Then plates were read in a PerkinElmer Opera Phenix using a 20x objective, 3 fields per well. DRAQ5 signal was detected using 640 nm excitation laser and a 690/50 nm emission detection filter. Automated image analysis was performed with a script developed on Acapella High Content Imaging and Analysis Software (PerkinElmer). Two outputs were provided for each sample well: (1) number of host cells nuclei to determine drug-related cytotoxicity (aka H9c2) and (2) number of amastigotes per cell as infection level measurement (aka AM/CELL). Each output is plotted as a time course for each compound at every concentration. This assay was adapted from Alonso-Padilla et al. and Peña et al..
To identify and classify the different compounds, the number of amastigotes per cell (AM/CELL) raw data obtained in rate of kill assay are normalised using the average of C1 (infected cells) at time 4 hours as 0% effect and the average of C2 (non-infected cells) for each time as 100% effect, according to the following Eq 1: %CIDALRESPONSE=100*[Avg_C14h-RawData]/[Avg_C14h-Avg_C2] (1)
• ME (Maximum Effect) is the maximum percentage of parasite burden reduction reached by any compound concentration. Compounds that decrease the initial parasite load will show a positive value of ME, whereas compounds that allow the progression of infection will render a negative ME value. […] It is calculated for the MCC50 (t50%_MCC50) and for the maximum concentration (t50%_Cmax). […] The value of this parameter is not either interpolated or extrapolated, and it refers to the first experimental time-course point at which a 50% of effect is reached or exceeded. • tlag defines the time elapsed for one particular concentration to reduce parasite burden between two consecutive points at any moment of the time course. It is calculated for the MCC50 (tlag_MCC50) and for the maximum concentration (tlag_Cmax). The value of this parameter is not either interpolated or extrapolated, and it refers to the first experimental time-course point of a positive slope in the normalised plot (i.e. %Cidal_Response). • Cmin_Tox (Minimal CytoToxic Concentration) is the lowest compound concentration that is reducing the number of host mammalian cells below 50% of initial cell density. Cytotoxic compounds may mislead a bona fide antiparasitic action.

SMILES	Trypomastigotes pIC50 48 hours [1]	Trypomastigotes pIC50 72 hours [1]	CYP51 pIC50 (TcCYP51)	ME_24h ([2]; figure 5)	ME_48h ([2]; figure 5)	ME_72h ([2]; figure 5)	MCCE ([2]; RoK curve descriptor) [µM]	AM/CELL NORM ([2]; Time 4)	AM/CELL NORM ([2]; Time 24)	AM/CELL NORM ([2]; Time 48)	AM/CELL NORM ([2]; Time 72)	tlag_Cmax [2] [h]	t50pct_Cmax ([2]; figure 5)	tlag_Cmax ([2]; figure 5)	t50pct_MCC50 ([2]; at MCC50, figure 5)	tlag_MCC50 ([2]; at MCC50, figure 5)	MCCE ([2]; figure 5)	ME_24h (%) [2] [%]	ME_48h (%) [2] [%]	ME_72h (%) [2] [%]	also measured
CC(C)N(C(=O)CN1C(=O)C(N)C(=O)N(c2ccccc2)c2ccccc21)c1ccccc1 (stereo not shown) [TCMDC-143071]	< 4.3	< 4.3	6.5	-154.934	-40.5762	63.3605	0.6	-6.592	-184.227	-40.5762	57.0597	24.0	72	24	72	24	0.6173	-154.9	-40.6	63.4	72 pIC50 (trypomastigotes, raw data of Fig 1D) [1]: < 4.3; 48 pIC50 ([1]; figure 1A): < 4.3; 72 pIC50 ([1]; figure 1A): < 4.3; 72 pIC50 ([1]; figure 1B): < 4.3; MCC50 ([2]; RoK curve descriptor): 5.6 µM; t50%_Cmax [2]: 72.0 h; t50%_MCC50 ([2]; at MCC50): 72.0 h; tlag_MCC50 ([2]; at MCC50): 24.0 h; MCC50 ([2]; figure 5, in µM): 5.556; ME 24h (maximum effect at 24 hours, intracellular amastigotes) [2]: -154.934%
CCCc1nc2nc(N)nc(N)c2cc1CC [TCMDC-143606]	5.9	5.8	< 4	41.1896	50.5934	54.3499	0.2	30.5298	50.9144	56.204	55.305	4.0	48	4	48	4	0.2058	41.2	50.6	54.4	MCC and MCCE values (in words) [2]: low MCC and MCCE values; ME (maximum effect) in RoK assay (in words) [2]: high ME value; tlag times [2]: 4 h; MCC50 ([2]; RoK curve descriptor): 25.9 µM; t50%_Cmax [2]: 60.0 h; t50%_MCC50 ([2]; at MCC50): 48.0 h; tlag_MCC50 ([2]; at MCC50): 4.0 h; MCC50 ([2]; figure 5, in µM): 25.9259; ME 24h (maximum effect at 24 hours, intracellular amastigotes) [2]: 50.9144%
O=C(Nc1ccc(Br)c(Cl)c1)Nc1ccc2c(c1)OCO2 [TCMDC-143588]	5.5	< 4.3	< 4	4.143	11.8076	-0.7061	5.6	16.6619	4.143	11.8076	-47.3133	24.0	72	24	72	72	5.556	4.1	11.8	-0.7	MCC50 ([2]; figure 5): 50 µM; ME 24h (maximum effect at 24 hours, intracellular amastigotes) [2]: 4.143%
CCN(Cc1ccncc1)Cc1ccc(NC(=O)c2cc(-c3ccc(F)cc3)n[nH]2)cc1 [TCMDC-143433]	4.9	4.5	7.1	-248.551	-140.579	30.4902	0.2	7.09	-279.989	-140.579	25.9601	24.0	72	24	72	72	0.2058	-248.6	-140.6	30.5	MCC50 ([2]; figure 5): 50 µM; ME 24h (maximum effect at 24 hours, intracellular amastigotes) [2]: -248.551%
N#Cc1ccc(S(=O)(=O)N2CCC3(CCN(c4ccccc4)C3=O)CC2)cc1 [TCMDC-143371]	< 4.3	< 4.3	< 4	-78.0559	40.2473	62.6058	1.2	10.0376	-56.4995	45.4375	85.4584	36.0	72	36	72	48	1.235	-78.1	40.3	62.6	72 pIC50 (trypomastigotes, raw data of Fig 1D) [1]: < 4.3; 48 pIC50 ([1]; figure 1A): < 4.3; 72 pIC50 ([1]; figure 1A): < 4.3; 72 pIC50 ([1]; figure 1B): < 4.3; MCC50 ([2]; RoK curve descriptor): 5.6 µM; t50%_Cmax [2]: 72.0 h; t50%_MCC50 ([2]; at MCC50): 72.0 h; tlag_MCC50 ([2]; at MCC50): 24.0 h; MCC50 ([2]; figure 5, in µM): 27.7778; ME 24h (maximum effect at 24 hours, intracellular amastigotes) [2]: -50.5626%
